# According to publication PMC8951032, “Study of Biological Activities and ADMET-Related Properties of Novel Chlorinated N-arylcinnamamides” (International Journal of Molecular Sciences, 2022):
# Read-outs that look alike come from different tables or passages of the source.
# Tests used:
# [1] = test system: methicillin-resistant S. aureus SA 630; test: In vitro antistaphylococcal activity, microtitration broth MIC; assay type: cell-based; details: Staphylococcus aureus
# [2] = test system: vancomycin-resistant E. faecalis (VRE) 725B; test: In vitro antienterococcal activity, microtitration broth MIC; assay type: cell-based, Enterococcus faecalis; details: 24 h
# [3] = test system: vancomycin-resistant E. faecalis (VRE) 342B; test: as above; assay type: cell-based, Enterococcus faecalis; details: 24 h
# [4] = test system: vancomycin-resistant E. faecalis (VRE) 368; test: as above; assay type: cell-based, Enterococcus faecalis
# [5] = test system: Mycobacterium marinum CAMP 5644; test: In vitro antimycobacterial activity, broth dilution MIC; assay type: cell-based; details: CAMP5644, 504 h
# [6] = test system: Mycobacterium smegmatis ATCC 700084; test: as above; assay type: cell-based; details: Mycolicibacterium smegmatis
# [7] = test system: Staphylococcus aureus ATCC 29213; test: In vitro antistaphylococcal activity, microtitration broth MIC; assay type: cell-based; details: for MIC: Staphylococcus aureus
# [8] = test system: Enterococcus faecalis ATCC 29212; test: In vitro antienterococcal activity, microtitration broth MIC; assay type: cell-based
# [9] = test system: S. aureus, MRSA, E. faecalis, VRE, M. smegmatis, M. marinum; test: In vitro antimicrobial screening, all tested strains; assay type: cell-based; details: antibacterial/antimycobacterial screening
# [10] = test system: human synovial cell line SW982; test: In vitro cell viability, CCK-8; assay type: cell-based; details: 10% fetal bovine serum
# Method: (§1) The effect of the compounds on viability of eukaryotic cells was evaluated on human leukemia cell line THP-1, human synovial cell line SW982, and isolated primary porcine monocytes-delivered macrophages (MDM). The general cytotoxic effect was studied on THP-1 cells in the serum-free medium (only THP-1 as the only cells used in this study are able to survive in serum-free medium). Most of the compounds had no cytotoxic effect on THP-1 cells. […] This could be caused by the direct interaction of such compounds with serum proteins or by the effect of mitogens, cytokines, and hormones present in the serum. Obviously, the full medium is closer to physiological conditions in living organisms, so it can be assumed that these compounds could be non-toxic there.
# (§2) Human monocytic leukemia cell line THP-1 and human synovial cell line SW982 were purchased from the European Collection of Cell Cultures (ECACC, Salisbury, UK) and were used for determination of the influence of test compounds on cell viability, as described previously. These cell lines represent typical suspension and adherent cells, respectively. They were cultivated with test substances in the presence or absence of fetal bovine serum (FBS) in the cultivation medium, and the relative cell viability (the ratio between cells treated with compounds and cells treated only with DMSO) was determined by CCK-8 kit (Sigma) after 24 h.
# [11] = test system: human monocytic leukemia cell line THP-1; test: In vitro cell viability, CCK-8; assay type: cell-based; details: for IC50: Homo sapiens, THP-1
# Method: as §1, §2
# [12] = test system: methicillin-resistant S. aureus (MRSA) 63718; test: In vitro antistaphylococcal activity, microtitration broth MIC; assay type: cell-based; details: Staphylococcus aureus
# [13] = test system: methicillin-resistant S. aureus SA 3202; test: as above; assay type: cell-based; details: Staphylococcus aureus
# [14] = test system: porcine monocyte-derived macrophages (MDM); test: In vitro cell viability, CCK-8; assay type: cell-based; details: Sus scrofa, Macrophage, 10% fetal bovine serum
# Method: as §1
# Porcine monocyte-derived macrophages (MDMs) were prepared, as described previously. Briefly, blood was collected from three-month-old pigs and peripheral blood mononuclear cells (PBMC) were isolated by gradient centrifugation (830× g, 40 min) using Histopaque-1077 (Sigma). CD14+ cells were isolated by positive magnetic bead selection with LS separation columns (Miltenyi Biotec, Bergisch Gladbach, Germany). Isolated monocytes were cultured in 96-well plates at a concentration of 1 × 10^5 cells per well in 0.2 mL of DMEM supplemented with 10% FBS and 1% antibiotics (Antibiotic Antimycotic Solution 100 × 10,000 units penicillin, 10 mg streptomycin, and 25 μg amphotericin B per mL; Sigma) and incubated for five days at 37 °C in 5% CO2 to differentiate into macrophages. Then, MDMs were cultured for 24 h with tested substances and the relative cell viability was determined by CCK-8 kit (Sigma) following manufacturer instructions.
# [15] = 24 h, MRSA SA 630, read-out: log(1/MIC [M]) MRSA2 (converted)
# [16] = MRSA SA 630, 24 h, read-out: MIC MRSA2
# [17] = read-out: log(1/MIC [M]) VRE3 (converted)
# [18] = read-out: log(1/MIC [M]) VRE1 (converted)
# [19] = 24 h, VRE 368, read-out: log(1/MIC [M]) VRE2 (converted)
# [20] = VRE 368, 24 h, read-out: MIC VRE2
# [21] = M. marinum CAMP 5644, 21 days, read-out: MIC MM
# [22] = M. marinum CAMP 5644, read-out: log(1/MIC [M]) MM (converted)
# [23] = ATCC700084, 72 h, M. smegmatis ATCC 700084, three days, read-out: MIC MS
# [24] = ATCC700084, M. smegmatis ATCC 700084, read-out: log(1/MIC [M]) MS (converted)
# [25] = ATCC29213, 24 h, S. aureus ATCC 29213, read-out: log(1/MIC [M]) SA (converted)
# [26] = ATCC29213, S. aureus ATCC 29213, 24 h, read-out: MIC SA
# [27] = ATCC29212, 24 h, E. faecalis reference strain, read-out: log(1/MIC [M]) EF (converted)
# [28] = ATCC29212, E. faecalis reference strain, 24 h, read-out: MIC EF
# [29] = 24 h, read-out: IC50 SW982 10% FSB
# [30] = read-out: log(1/IC50 [M]) SW982 10% FSB (converted)
# [31] = 10% fetal bovine serum, 24 h, read-out: IC50 THP-1 10% FSB
# [32] = 10% fetal bovine serum, read-out: log(1/IC50 [M]) THP-1 10% FSB (converted)
# [33] = serum-free medium, 24 h, read-out: IC50 THP-1 SFM
# [34] = serum-free medium, read-out: log(1/IC50 [M]) THP-1 SFM (converted)
# [35] = 24 h, MRSA 63718, read-out: log(1/MIC [M]) MRSA1 (converted)
# [36] = MRSA 63718, 24 h, read-out: MIC MRSA1
# [37] = 24 h, MRSA SA 3202, read-out: log(1/MIC [M]) MRSA3 (converted)
# [38] = MRSA SA 3202, 24 h, read-out: MIC MRSA3
# [39] = 24 h, read-out: IC50 MDM 10% FSB
# [40] = read-out: log(1/IC50 [M]) MDM 10% FSB (converted)
Structure (SMILES),"MIC [1, 15]","MIC [1, 16]",MIC ([2]; read-out: MIC VRE3),"MIC [2, 17]",MIC ([3]; read-out: MIC VRE1),"MIC [3, 18]","MIC [4, 19]","MIC [4, 20]","MIC [5, 21]","MIC [5, 22]","MIC [6, 23]","MIC [6, 24]","MIC [7, 25]","MIC [7, 26]","MIC [8, 27]","MIC [8, 28]","IC50 [10, 29]","IC50 [10, 30]","IC50 [11, 31]","IC50 [11, 32]",further results
"O=C(/C=C/c1ccc(Cl)cc1)Nc1cc(C(F)(F)F)cc(C(F)(F)F)c1 [1q, (2E)-N-[3,5-bis(Trifluoromethyl)phenyl]-3-(4-chlorophenyl)prop-2-enamide]",3.16e-07 M,3.18e-07 M,0.000325 M,0.000324 M,0.00065 M,0.000646 M,0.000324 M,0.000325 M,> 0.00065 M,> 0.000646 M,2.54e-06 M,2.51e-06 M,3.16e-07 M,3.18e-07 M,0.000324 M,0.000325 M,> 1e-05 M,> 1e-05 M,> 1e-05 M,> 1e-05 M,"activity against S. aureus and MRSA isolates (in words) [7]: submicromolar; antimicrobial activity (in words) [9]: showed activity; IC50 [11, 33]: 1e-06 ± 1.1e-06 M; IC50 [11, 34]: 1e-06 M; MIC [12, 35]: 3.16e-07 M; MIC [12, 36]: 3.18e-07 M; MIC [13, 37]: 6.31e-07 M; MIC [13, 38]: 6.35e-07 M; IC50 [14, 39]: > 1e-05 M; IC50 [14, 40]: > 1e-05 M"
"O=C(/C=C/c1ccc(Cl)c(Cl)c1)Nc1cccc(C(F)(F)F)c1 [2i, (2E)-3-(3,4-Dichlorophenyl)-N-[3-(trifluoromethyl)phenyl]prop-2-enamide]",1.38e-06 M,1.39e-06 M,4.44e-05 M,4.47e-05 M,2.22e-05 M,2.24e-05 M,2.24e-05 M,2.22e-05 M,5.55e-06 M,5.5e-06 M,5.55e-06 M,5.5e-06 M,1.38e-06 M,1.39e-06 M,2.24e-05 M,2.22e-05 M,> 1e-05 M,> 1e-05 M,> 1e-05 M,> 1e-05 M,"antimicrobial activity (in words) [9]: active; IC50 [11, 33]: 1.9e-06 ± 1e-06 M; IC50 [11, 34]: 1.91e-06 M; MIC [12, 35]: 6.92e-07 M; MIC [12, 36]: 6.94e-07 M; MIC [13, 37]: 1.38e-06 M; MIC [13, 38]: 1.39e-06 M; IC50 [14, 39]: > 1e-05 M; IC50 [14, 40]: > 1e-05 M"
"O=C(/C=C/c1ccc(Cl)c(Cl)c1)Nc1ccc(OC(F)(F)F)cc1 [2k, (2E)-3-(3,4-Dichlorophenyl)-N-[4-(trifluoromethoxy)phenyl]prop-2-enamide]",1.32e-06 M,1.33e-06 M,2.13e-05 M,2.14e-05 M,2.13e-05 M,2.14e-05 M,4.27e-05 M,4.25e-05 M,2.66e-06 M,2.95e-07 M,1.06e-05 M,2.34e-06 M,2.95e-07 M,1.33e-06 M,4.68e-06 M,1.06e-05 M,> 1e-05 M,> 1e-05 M,> 1e-05 M,> 1e-05 M,"antimicrobial activity (in words) [9]: active; reduction of cell viability, CCK-8 assay ([11]; 2k 1.0 µM, serum-free medium): 50%; IC50 [11, 33]: 1e-06 ± 1e-06 M; IC50 [11, 34]: 5.01e-07 M; MIC [12, 35]: 1.32e-06 M; MIC [12, 36]: 1.33e-06 M; MIC [13, 37]: 1.32e-06 M; MIC [13, 38]: 1.33e-06 M; IC50 [14, 39]: > 1e-05 M; IC50 [14, 40]: > 1e-05 M"
"O=C(/C=C/c1ccc(Cl)cc1)Nc1cc(Cl)cc(Cl)c1 [1p, (2E)-3-(4-Chlorophenyl)-N-(3,5-dichlorophenyl)prop-2-enamide]",3.8e-07 M,3.83e-07 M,> 0.000783 M,> 0.000776 M,> 0.000783 M,> 0.000776 M,> 0.000776 M,> 0.000783 M,> 0.000783 M,> 0.000776 M,2.45e-05 M,2.45e-05 M,3.8e-07 M,3.83e-07 M,> 0.000776 M,> 0.000783 M,> 1e-05 M,> 1e-05 M,> 1e-05 M,> 1e-05 M,"activity against S. aureus and MRSA isolates (in words) [7]: submicromolar; antimicrobial activity (in words) [9]: showed activity; IC50 [11, 33]: 2.5e-06 ± 1.1e-06 M; IC50 [11, 34]: 2.51e-06 M; MIC [12, 35]: 3.8e-07 M; MIC [12, 36]: 3.83e-07 M; MIC [13, 37]: 7.59e-07 M; MIC [13, 38]: 7.65e-07 M; IC50 [14, 39]: > 1e-05 M; IC50 [14, 40]: > 1e-05 M"
"O=C(/C=C/c1ccc(Cl)cc1)Nc1cccc(C(F)(F)F)c1 [1i, (2E)-3-(4-Chlorophenyl)-N-[3-(trifluoromethyl)phenyl]prop-2-enamide]",3.09e-06 M,3.07e-06 M,> 0.000786 M,> 0.000794 M,> 0.000786 M,> 0.000794 M,> 0.000794 M,> 0.000786 M,> 0.000786 M,> 0.000794 M,> 0.000786 M,> 0.000794 M,6.17e-06 M,6.14e-06 M,> 0.000794 M,> 0.000786 M,> 1e-05 M,> 1e-05 M,> 1e-05 M,> 1e-05 M,"antimicrobial activity (in words) [9]: showed activity; IC50 [11, 33]: 2.9e-06 ± 1.2e-06 M; IC50 [11, 34]: 2.88e-06 M; MIC [12, 35]: 6.17e-06 M; MIC [12, 36]: 6.14e-06 M; MIC [13, 37]: 6.17e-06 M; MIC [13, 38]: 6.14e-06 M; IC50 [14, 39]: > 1e-05 M; IC50 [14, 40]: > 1e-05 M"
"O=C(/C=C/c1ccc(Cl)c(Cl)c1)Nc1ccccc1 [2a, (2E)-3-(3,4-Dichlorophenyl)-N-phenylprop-2-enamide]",> 0.000871 M,> 0.000876 M,> 0.000876 M,> 0.000871 M,> 0.000876 M,> 0.000871 M,> 0.000871 M,> 0.000876 M,0.000876 M,0.000871 M,1.36e-05 M,1.38e-05 M,1.38e-05 M,1.36e-05 M,0.000871 M,0.000876 M,> 1e-05 M,> 1e-05 M,> 1e-05 M,> 1e-05 M,"IC50 [11, 33]: 7.5e-06 ± 1e-06 M; IC50 [11, 34]: 7.59e-06 M; MIC [12, 35]: > 0.000871 M; MIC [12, 36]: > 0.000876 M; MIC [13, 37]: > 0.000871 M; MIC [13, 38]: > 0.000876 M; IC50 [14, 39]: > 1e-05 M; IC50 [14, 40]: > 1e-05 M"
